{"source": "patent US20260109731A1", "about": "“NE[…] USE THEREOF” (HUNAN MINGRUI PHARMACEUTICAL CO., LTD., priority 2023, published 2026)", "key": {"[1]": {"test": "In vitro phase I metabolic stability in male SD rat hepatic microsomes", "type": "in vitro ADME", "details": "male SD rat hepatic microsomes", "experimental": "Phase I metabolic stability kit (purchased from HUIZHI HEYUAN BIOTECHNOLOGY (BEIJING) CO., LTD), with the following components of the product:\nPositive substrate testosterone solution (10 mM): diluted with acetonitrile to prepare a 200 μM solution for later use; stop solution & internal standard (testosterone-D3): dissolved with acetonitrile to prepare a 5 ng/mL solution for later use.\n• 1) all components of the kit were thawed in an ice bath and placed on ice for later use; • 2) an incubation system (taking 200 μL system as an example) was prepared:\n• 3) 160 μL of pre-incubation solution B was added into the centrifuge tube containing 40 μL of pre-incubation solution A, uniform mixing was performed by pipetting three times, and the resulting mixture was immediately placed in a water bath at 37° C. for incubation and timing was started; • 4) at predetermined incubation time points (0, 5, 10, 15, 30, 45, 60 minutes), the incubation solution was quantitatively taken out, and 200 μL of stop solution (5 ng/mL testosterone-D3 in acetonitrile, pre-chilled at 4° C.) was added to terminate the reaction (stop solution volume: incubation system volume=1:1). Experimental samples were prepared in triplicate at each time point.\nTo verify the validity of the experiment, a positive control group was established concurrently in the whole experiment to evaluate whether the incubation system functioned properly, with the preparation method as follows: the compound to be tested was replaced with the positive substrate testosterone (200 μM in acetonitrile) from the phase I metabolic stability kit, and the other components of the incubation system and experimental method were the same as those of the experimental group.\nThe ratio of the chromatographic peak area of the compound to be tested to the chromatographic peak area of the testosterone-D3 (internal standard) was used as the calculated data. By taking the peak area ratio at time zero of the test compound as 100%, the remaining percentages were calculated by comparing the peak area ratio at each time point with the peak area ratio at time zero, and the natural logarithms of the remaining percentages of the substrate at each time point are then subjected to linear regression against the incubation times to obtain the slope k. Therefore, the in vitro metabolic half-life (T1/2) and intrinsic clearance (CLint) were calculated using the following formulas: […]"}, "[2]": {"test": "Pharmacokinetic analysis of tail vein administration in female rats", "details": "3 mg/kg", "experimental": "(§1) • Female SD rats (body weight: 200 g to 220 g) were purchased from BEIJING HFK BIOSCIENCE CO., LTD.\n60 female SD rats were divided into two groups (Aintravenous and Bintravenous), with 30 rats per group (5 rats per blood collection time point). The drugs Aintravenous and Bintravenous were administered via tail vein injection at 3 mg/kg each (about 1.2 mL of drug solution). Blood was collected from the orbital venous plexus at time points (5 min, 30 min, 1 h, 2 h, 4 h, and 8 h) after administration, respectively, anticoagulated with heparin, and centrifuged, and then the plasma was separated and stored at −80° C. for later testing. At 8 h after blood collection, the animals were sacrificed, and the brain and liver tissues were taken and stored at −80° C. for later testing.\n(§2) 100 μL of plasma sample, 10 μL of internal standard solution (100 ng/mL testosterone D-3 solution), and 310 μL of acetonitrile were accurately measured, uniformly mixed by vortexing, and centrifuged (14000 rpm, 4° C.), and a resulting supernatant was taken and detected using UPLC-MS/MS (the analysis method was the same as that in pharmacokinetic analysis in mice).\n(§3) About 100 mg of brain or liver tissue sample was taken, and accurately weighed. 100 μL of water and 400 μL acetonitrile were accurately added thereto, and a resulting mixture was subjected to homogenization. 100 μL of brain or liver tissue homogenate, 10 μL of internal standard solution (100 ng/mL testosterone D-3 solution), and 310 μL of acetonitrile were accurately measured, uniformly mixed by vortexing, and centrifuged (14000 rpm, 4° C.), and a resulting supernatant was taken and detected using UPLC-MS/MS (the analysis method was the same as that in pharmacokinetic analysis in mice)."}, "[3]": {"test": "Pharmacokinetic analysis of oral gavage administration in female rats", "details": "12 mg/kg", "experimental": "as §1\n60 female SD rats were divided into two groups (Aoral and Boral), with 30 rats per group (5 rats per blood collection time point). The drugs Aoral and Boral were administered via oral gavage administration at 12 mg/kg each (about 1.6 mL of drug solution). Blood was collected from the orbital venous plexus at each time point (5 min, 30 min, 1 h, 2 h, 4 h, and 8 h) after administration, respectively, anticoagulated with heparin, and centrifuged, and then the plasma was separated and stored at −80° C. for later testing. At 8 h after blood collection, the animals were sacrificed, and the brain and Liver tissues were taken and stored at −80° C. for later testing.\nas §2, §3"}, "[4]": {"test": "Pharmacokinetic analysis of oral administration to male rats", "type": "in vivo", "details": "oral gavage 12 mg/kg; for Blood drug concentration: individual rats 1-7; for concentration at 0.5 h / concentration at 1 h / concentration at 2 h / concentration at 3 h / concentration at 4 h / concentration at 5 h / concentration at 6 h / concentration at 8 h / concentration at 10 h / concentration at 12 h / concentration at 18 h / concentration at 24 h: male, SD, rat, plasma, po, 12 mg/kg", "description": "Male SD rats (body weight: 230 g to 250 g) were purchased from BEIJING HFK BIOSCIENCE CO., LTD."}, "[5]": {"details": "female SD rats, tail vein, 8 h after administration"}}, "note": "Read-outs that look alike come from different tables or passages of the source."}
{"smiles": "CC(=O)[C@H]1CC[C@H]2[C@@H]3CC[C@H]4C[C@H](O)CC[C@]4(C)[C@H]3CC[C@]12C", "note": "[Allopregnanolone, 5α-pregnan-3α-ol-20-one, reference compound]", "values": [{"measurement": "half-life", "setting": "[1]; liver microsomes, NADPH system, 37° C., read-out: T1/2 (in vitro metabolic half-life)", "value": 2.17, "unit": "min"}, {"measurement": "microsomal CLint", "setting": "[1]; liver microsomes, read-out: intrinsic clearance", "value": 639, "unit": "µL/min/mg"}, {"measurement": "In vitro CLint", "setting": "[1]; 37° C.", "value": 639.28, "unit": "μL/min/mg protein"}, {"measurement": "k (slope of ln remaining percentage against incubation time)", "setting": "[1]; 37° C.", "value": "−0.3196"}, {"measurement": "level of the administered compound in the liver", "setting": "[2]; female SD rats, intravenous (tail vein), 8 h after administration", "value": "undetectable"}, {"measurement": "concentration in brain tissue", "setting": "[2]; [5]", "value": "undetectable"}, {"measurement": "concentration in plasma", "setting": "[2]; [5]", "value": "undetectable"}, {"measurement": "clearance", "setting": "[2]; female, SD, rat, plasma, iv", "value": 109, "unit": "mL/min/kg"}, {"measurement": "half-life", "setting": "[2]; female, SD, rat, plasma, iv", "value": 52.2, "unit": "min"}, {"measurement": "level of the administered compound in the liver tissue (for compound 1 the sentence prints: in the plasma)", "setting": "[3]; female SD rats, oral administration, 8 h after administration", "value": "undetectable"}, {"measurement": "level in plasma and brain tissue at all time points", "setting": "[3]; female SD rats, oral gavage", "value": "undetectable"}, {"measurement": "bioavailability", "setting": "[3]; female, SD, rat, plasma, oral", "value": 0, "unit": "%"}, {"measurement": "Blood drug concentration", "setting": "[4]; male SD rats, 0.5 h", "value": 0, "unit": "ng/mL"}, {"measurement": "level in the plasma at all time points", "setting": "[4]; male SD rats, 30 min to 24 h", "value": "undetectable"}, {"measurement": "Blood drug concentration", "setting": "[4]; male SD rats, 1 h", "value": 0, "unit": "ng/mL"}, {"measurement": "Blood drug concentration", "setting": "[4]; male SD rats, 2 h", "value": 0, "unit": "ng/mL"}, {"measurement": "Blood drug concentration", "setting": "[4]; male SD rats, 3 h", "value": 0, "unit": "ng/mL"}, {"measurement": "Blood drug concentration", "setting": "[4]; male SD rats, 4 h", "value": 0, "unit": "ng/mL"}, {"measurement": "Blood drug concentration", "setting": "[4]; male SD rats, 5 h", "value": 0, "unit": "ng/mL"}, {"measurement": "Blood drug concentration", "setting": "[4]; male SD rats, 6 h", "value": 0, "unit": "ng/mL"}, {"measurement": "Blood drug concentration", "setting": "[4]; male SD rats, 8 h", "value": 0, "unit": "ng/mL"}, {"measurement": "Blood drug concentration", "setting": "[4]; male SD rats, 10 h", "value": 0, "unit": "ng/mL"}, {"measurement": "Blood drug concentration", "setting": "[4]; male SD rats, 12 h", "value": 0, "unit": "ng/mL"}, {"measurement": "Blood drug concentration", "setting": "[4]; male SD rats, 18 h", "value": 0, "unit": "ng/mL"}, {"measurement": "Blood drug concentration", "setting": "[4]; male SD rats, 24 h", "value": 0, "unit": "ng/mL"}, {"measurement": "concentration at 0.5 h", "setting": "[4]; 0.5 h, individual rats 1-7, read-out: Blood drug concentration", "value": 0, "unit": "ng/mL"}, {"measurement": "concentration at 0.5 h", "setting": "[4]; 0.5 h, mean of 7 rats, read-out: Blood drug concentration, Mean value", "value": 0, "unit": "ng/mL"}, {"measurement": "concentration at 1 h", "setting": "[4]; 1 h, individual rats 1-7, read-out: Blood drug concentration", "value": 0, "unit": "ng/mL"}, {"measurement": "concentration at 1 h", "setting": "[4]; 1 h, mean of 7 rats, read-out: Blood drug concentration, Mean value", "value": 0, "unit": "ng/mL"}, {"measurement": "concentration at 2 h", "setting": "[4]; 2 h, individual rats 1-7, read-out: Blood drug concentration", "value": 0, "unit": "ng/mL"}, {"measurement": "concentration at 2 h", "setting": "[4]; 2 h, mean of 7 rats, read-out: Blood drug concentration, Mean value", "value": 0, "unit": "ng/mL"}, {"measurement": "concentration at 3 h", "setting": "[4]; 3 h, individual rats 1-7, read-out: Blood drug concentration", "value": 0, "unit": "ng/mL"}, {"measurement": "concentration at 3 h", "setting": "[4]; 3 h, mean of 7 rats, read-out: Blood drug concentration, Mean value", "value": 0, "unit": "ng/mL"}, {"measurement": "concentration at 4 h", "setting": "[4]; 4 h, individual rats 1-7, read-out: Blood drug concentration", "value": 0, "unit": "ng/mL"}, {"measurement": "concentration at 4 h", "setting": "[4]; 4 h, mean of 7 rats, read-out: Blood drug concentration, Mean value", "value": 0, "unit": "ng/mL"}, {"measurement": "concentration at 5 h", "setting": "[4]; 5 h, individual rats 1-7, read-out: Blood drug concentration", "value": 0, "unit": "ng/mL"}, {"measurement": "concentration at 5 h", "setting": "[4]; 5 h, mean of 7 rats, read-out: Blood drug concentration, Mean value", "value": 0, "unit": "ng/mL"}, {"measurement": "concentration at 6 h", "setting": "[4]; 6 h, individual rats 1-7, read-out: Blood drug concentration", "value": 0, "unit": "ng/mL"}, {"measurement": "concentration at 6 h", "setting": "[4]; 6 h, mean of 7 rats, read-out: Blood drug concentration, Mean value", "value": 0, "unit": "ng/mL"}, {"measurement": "concentration at 8 h", "setting": "[4]; 8 h, individual rats 1-7, read-out: Blood drug concentration", "value": 0, "unit": "ng/mL"}, {"measurement": "concentration at 8 h", "setting": "[4]; 8 h, mean of 7 rats, read-out: Blood drug concentration, Mean value", "value": 0, "unit": "ng/mL"}, {"measurement": "concentration at 10 h", "setting": "[4]; 10 h, individual rats 1-7, read-out: Blood drug concentration", "value": 0, "unit": "ng/mL"}, {"measurement": "concentration at 10 h", "setting": "[4]; 10 h, mean of 7 rats, read-out: Blood drug concentration, Mean value", "value": 0, "unit": "ng/mL"}, {"measurement": "concentration at 12 h", "setting": "[4]; 12 h, individual rats 1-7, read-out: Blood drug concentration", "value": 0, "unit": "ng/mL"}, {"measurement": "concentration at 12 h", "setting": "[4]; 12 h, mean of 7 rats, read-out: Blood drug concentration, Mean value", "value": 0, "unit": "ng/mL"}, {"measurement": "concentration at 18 h", "setting": "[4]; 18 h, individual rats 1-7, read-out: Blood drug concentration", "value": 0, "unit": "ng/mL"}, {"measurement": "concentration at 18 h", "setting": "[4]; 18 h, mean of 7 rats, read-out: Blood drug concentration, Mean value", "value": 0, "unit": "ng/mL"}, {"measurement": "concentration at 24 h", "setting": "[4]; 24 h, individual rats 1-7, read-out: Blood drug concentration", "value": 0, "unit": "ng/mL"}, {"measurement": "concentration at 24 h", "setting": "[4]; 24 h, mean of 7 rats, read-out: Blood drug concentration, Mean value", "value": 0, "unit": "ng/mL"}]}
